Measurements as given in US11964955B2, “Mixtures of cannabinoid compounds, and production and use thereof” (priority 2015, dated 2024).
Entries after “also recorded” stand apart in the source; their conditions may differ. Read-outs that look alike come from different tables or passages of the source.

Experiments:
[1] = biological target: CB2 receptor; conditions: Pertwee et al. Pharmacol. Rev. 2010; read-out: CB2 affinity (dissociation constant) listed in the literature; cited from earlier work
[2] = biological target: T1, CB1 receptor (Homo sapiens, UniProt P21554); test: biochemical; assay type: binding; set-up: purchased RBHCB1M400UA
T1 sequence (P21554 whole entry): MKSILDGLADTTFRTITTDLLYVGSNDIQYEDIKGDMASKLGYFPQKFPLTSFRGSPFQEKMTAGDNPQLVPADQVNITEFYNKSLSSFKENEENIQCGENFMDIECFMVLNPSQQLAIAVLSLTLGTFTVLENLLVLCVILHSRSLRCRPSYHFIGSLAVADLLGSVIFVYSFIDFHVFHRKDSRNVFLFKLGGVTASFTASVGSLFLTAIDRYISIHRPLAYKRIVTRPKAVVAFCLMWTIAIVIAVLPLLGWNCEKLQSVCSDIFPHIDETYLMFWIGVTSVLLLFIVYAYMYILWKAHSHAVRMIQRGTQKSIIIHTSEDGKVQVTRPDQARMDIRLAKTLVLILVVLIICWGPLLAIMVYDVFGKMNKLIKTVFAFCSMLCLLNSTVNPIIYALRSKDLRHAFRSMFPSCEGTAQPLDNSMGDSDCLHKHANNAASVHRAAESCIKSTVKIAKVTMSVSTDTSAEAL

[3] = biological target: T2, CB2 receptor (Homo sapiens, UniProt P34972); test: Competition binding study with [3H]-CP55940 on membranes of CB2-transfected human cells; set-up: purchased RBXCB2M400UA; conditions: for Ki: mean +/- SEM, [3H]-CP55940 0.15 nM, triplicates; for Selectivity for CB2 compared to CB1 (fold): ratio of Ki CB1 to Ki CB2; for CB2 (% Binding): screening with a single high dose, displacement of [3H]-CP55940 0.15 nM
T2 sequence (P34972 whole entry): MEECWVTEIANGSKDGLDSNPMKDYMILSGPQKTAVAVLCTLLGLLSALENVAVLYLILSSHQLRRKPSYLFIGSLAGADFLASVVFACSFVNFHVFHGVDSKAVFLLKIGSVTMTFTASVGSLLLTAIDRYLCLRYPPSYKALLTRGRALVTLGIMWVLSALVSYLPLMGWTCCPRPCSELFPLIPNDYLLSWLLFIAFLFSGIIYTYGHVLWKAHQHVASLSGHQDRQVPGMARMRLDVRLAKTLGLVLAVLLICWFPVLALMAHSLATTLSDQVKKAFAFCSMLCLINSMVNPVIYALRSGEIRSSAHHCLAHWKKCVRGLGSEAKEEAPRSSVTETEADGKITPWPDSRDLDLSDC

[4] = biological target: T2, CB2 receptor; test: Signal transmission (CRE-luciferase, forskolin) in CHO-CB2-CREluc cells, agonism; conditions: for Functional effect at the CB2 receptor (in words): FIGS. 2 and 3
[5] = biological target: T1, CB1 receptor; test: Signal transmission (CRE-luciferase) in CHO-CB1-CREluc cells, agonism and antagonism versus WIN; conditions: for Functional effect at the CB1 receptor (in words): text and FIGS. 4 to 6

Row | SMILES | Ki [1] | Binding to CB1 receptor (in words) [2] | CB1 (% Binding) [2] | Ki [2] | Binding to CB2 receptor (in words) [3] | Ki [3] | Selectivity for CB2 compared to CB1 (fold) [3] | CB2 (% Binding) [3] | Agonism and antagonism at CB2 [4] | Functional effect at the CB2 receptor (in words) [4] | Agonism and antagonism at CB1 [5] | Functional effect at the CB1 receptor (in words) [5] | Ki ([2]; read-out: Ki for CB1)
2 | C=C(C)[C@@H]1CCC(C)C=C1c1c(O)cc(CCC)c(C(=O)OC2CCCCC2)c1O (stereo partly shown) [CHCBDV, cyclohexylcannabidivarinolat] |  | strong binding to the receptors within the lower nanomolar range | 82.4% (n = 4) | 13.2 ± 0.85 nM | strong binding to the receptors within the lower nanomolar range | 4.62 ± 0.46 nM | 2.9 fold | 99.9% (n = 3) | ++ | CB1 and CB2 agonist; also recorded: Dose-dependent agonism | ++ | CB1 and CB2 agonist; also recorded: Dose-dependent agonism | 
3 | C=C(C)[C@@H]1CCC(C)=C[C@H]1c1c(O)cc(CCC)c(C(=O)OCCO)c1O [HECBDV, 2-hydroxyethylcannabidivarinolat] |  |  | 43.3% (n = 5) |  |  | 168 ± 39.4 nM | 33.6 fold | 95.0% (n = 3) | ++ | selective agonist; also recorded: Dose-dependent agonism | − | inhibited; also recorded: Dose-dependent antagonism | 5650 ± 3900 nM
4 | C=C(C)[C@@H]1CCC(C)C=C1c1c(O)cc(CCC)c(C(=O)OCCCCCC)c1O (stereo partly shown) [HCBDV, hexylcannabidivarinolat] |  | strong binding to the receptors within the lower nanomolar range | 91.1% (n = 4) | 8.28 ± 0.69 nM | strong binding to the receptors within the lower nanomolar range | 9.91 ± 2.46 nM | 0.8 fold | 98.5% (n = 3) | 0 |  | ++ | selective activation of CB1 receptors; also recorded: Dose-dependent agonism | 
